The text below walks through data of article PMC4810081, “Venetoclax (ABT-199) Might Act as a Perpetrator in Pharmacokinetic Drug–Drug Interactions” (Pharmaceutics, 2016).

In one data set the test system is P-gp. In words: P-gp inhibition, calcein assay in P388/dx cells. The note with it: mouse, P388/dx cells over-expressing murine mdr1a/b, probe calcein. It is filed as in vitro ADME. Here is the method:
P388 and P388/dx cells. For testing P-gp inhibition, the murine monocytic leukemia cell line P388/dx over-expressing murine mdr1a/b and the corresponding parental cell line P388 were used. Both cell lines were kindly provided by D. Ballinari (Pharmacia & Upjohn, Milano, Italy). The cells were cultured under standard cell culture conditions with an RPMI 1640 medium supplemented with 10% FCS, 2 mM of glutamine, […] of β-mercaptoethanol, 100 U/mL of penicillin, and 100 µg/mL of streptomycin sulfate. For maintaining P-gp expression, the culture medium for P388/dx was supplemented with 0.43 µM of doxorubicin. One day before the assay, both cell lines were fed with a doxorubicin-free culture medium.
P-gp inhibition was assessed with the calcein assay in P388/dx cells as described previously. Inhibition of P-gp increases intracellular calcein fluorescence in these cells. Each venetoclax concentration (0.005–50 µM) was tested in octuplet, and the experiment was performed in quadruplicate.

The target in the next data set is T1, BCRP (Homo sapiens, UniProt Q9UNQ0).
T1 construct: expressed in transfected cells; host or cells: MDCKII-BCRP (gift of A. H. Schinkel and P. Borst)
In words: BCRP inhibition, flow cytometric pheophorbide A assay in MDCKII-BCRP cells. The data set is classed as in vitro ADME. From the text: MDCKII cells. The transporter over-expressing cell lines MDCKII-MDR1 [5], MDCKII-MRP2 [6], and MDCKII-BCRP [7] and the corresponding parental cell line MDCKII were used to assess the sensitivity of cells with and without P-gp, multidrug resistance-associated protein 2 (MRP2/ABCC2), or BCRP expression. Moreover, MDCKII-BCRP cells were used to assess BCRP inhibition by venetoclax. MDCKII over-expressing cell lines were kindly provided by A. H. Schinkel and P. Borst (Amsterdam, The Netherlands). The parental cell line MDCKII (available at ATCC, Manassas, VA, USA) was used as a control. The cells were cultured in Dulbecco’s Modified Eagle’s Medium (DMEM) containing 10% FCS, 2 mM of glutamine, 100 U/mL of penicillin, and 100 µg/mL of streptomycin sulfate.
Flow cytometric BCRP inhibition assays were conducted in control (MDCKII) and BCRP over-expressing cells (MDCKII-BCRP) using PhA as a fluorescent BCRP substrate as described and validated previously. Inhibition of BCRP leads to an increase in intracellular PhA concentrations. Each experiment was performed in triplicate. Venetoclax was tested from 0.1 up to 100 µM.

A further data set concerns the target T2, CYP1A2 (Homo sapiens, UniProt P05177).
T2 construct: purchased Promega Corporation (Madison, WI, USA)
In words: CYP1A2 inhibition, P450-Glo CYP1A2 Screening System. The data set is classed as in vitro ADME. Conditions: luciferin-ME substrate, 0.05–100 µM tested. Here is the method:
(§1) Inhibition studies for CYP2B6, CYP2D6, CYP2C19 and CYP3A4 were performed with the CYP2B6/EFC, CYP2D6/AMMC, the CYP2C19/CEC, and the CYP3A4/BFC High Throughput Inhibitor Screening Kit according to the manufacturer’s instructions. The kits contain the respective recombinant CYP and fluorogenic substrates, which are blocked dyes emitting a fluorescence signal when cleaved by the enzyme. For testing CYP1A2 inhibition, the P450-Glo CYP1A2 Screening System was used according to the manufacturer’s instructions. The kit contains the luminogenic CYP1A2 substrate luciferin-ME, which is converted by CYP1A2 into luciferin-generating light when incubated with the luciferin detection reagent of the kit. Eight concentrations of venetoclax in duplicates (0.009–20 µM) were tested in the fluorescence assays, and eight concentrations in triplicate (0.05–100 µM) were tested for the luminogenic assay. Each experiment was conducted in triplicate.

Another data set concerns the target T3, CYP2C19 (Homo sapiens, UniProt P33261).
T3 construct: purchased Becton Dickinson Biosciences (Heidelberg, Germany)
In words: CYP2C19 inhibition, CYP2C19/CEC High Throughput Inhibitor Screening Kit. Conditions: recombinant CYP, fluorogenic substrate. It is filed as in vitro ADME. Here is the method:
as §1

The target of a further data set is T4, CYP2D6 (Homo sapiens, UniProt P10635).
T4 construct: purchased Becton Dickinson Biosciences (Heidelberg, Germany)
In words: CYP2D6 inhibition, CYP2D6/AMMC High Throughput Inhibitor Screening Kit. Conditions: recombinant CYP, fluorogenic substrate, 0.009–20 µM tested. The data set is classed as in vitro ADME. Here is the method:
as §1

The next data set has as its target T5, CYP3A4 (Homo sapiens, UniProt P08684).
T5 construct: purchased Becton Dickinson Biosciences (Heidelberg, Germany)
Kind of data set: CYP3A4 inhibition, CYP3A4/BFC High Throughput Inhibitor Screening Kit. The data set is classed as in vitro ADME. The note with it: recombinant CYP, fluorogenic substrate. Here is the method: as §1

In another data set the test system is CYP1A1. In words: Induction assay, CYP1A1 mRNA by real-time RT-PCR in LS180 cells. Conditions: four days, 10 µM. It is filed as in vitro ADME, human. Here is the method:
(§2) LS180 cells. The human colon adenocarcinoma cell line LS180 (available at ATCC, Manassas, VA, USA) is one of the standard models for investigating pregnane X receptor (PXR) and aryl hydrocarbon receptor (AhR) mediated induction and was thus used for induction experiments. Cells were cultured under standard cell culture conditions with DMEM supplemented with 10% FCS, 2 mM of glutamine, 100 U/mL of penicillin, 100 µg/mL of streptomycin sulfate, and 0.1 mM of nonessential amino acids.
(§3) For the induction experiments, LS180 cells were seeded in 75 cm^2 culturing flasks and incubated for three days. […]
(§4) RNA was isolated using the GenElute™ Mammalian Total RNA Miniprep Kit, and cDNA was synthesized with the RevertAid™ H Minus First Strand cDNA Synthesis Kit according to the manufacturer's instructions. mRNA expression was quantified by real-time RT-PCR with the LightCycler® 480 (Roche Applied Science, Mannheim, Germany) as described previously. […] Data were evaluated via calibrator-normalized relative quantification with efficiency correction using the LightCycler® 480 software version 1.5 (Roche Applied Science, Mannheim, Germany). […] The following target genes were quantified: CYP1A1, CYP1A2, CYP3A4, ABCB1, ABCC2, ABCG2, SLCO1B1 (coding for OATP1B1), UDP-glucuronosyltransferase 1A3 (UGT1A3), and UGT1A9.
(In qPCR the cycle at which signal appears reflects the starting amount.)

A further data set relates to UGT1A3. In words: Induction assay, UGT1A3 mRNA by real-time RT-PCR in LS180 cells. It is filed as in vitro ADME, human. The note with it: four days, 10 µM. Here is the method:
as §2, §3, §4

A short description of data set [1]: Intestinal concentration by FDA formula. Conditions: after a dose of 250 mg, according to FDA formula (dose/250 mL). Here is the method: Thus, the question of whether these effects will also play a role in the clinical situation arises. Therapeutic plasma concentrations of venetoclax reach about 5 µM [3, 34, 35], a similar range to concentrations inhibiting drug transporters and CYP in vitro. […] Thus, even the moderate inhibition of P-gp by venetoclax might be relevant and should be tested in vivo.

On the set-up of data set [2]: method as in PMID 26639348, PMID 22184378, PMID 27520294. The note with it: cited from earlier work.

T4 sequence (P10635 whole entry): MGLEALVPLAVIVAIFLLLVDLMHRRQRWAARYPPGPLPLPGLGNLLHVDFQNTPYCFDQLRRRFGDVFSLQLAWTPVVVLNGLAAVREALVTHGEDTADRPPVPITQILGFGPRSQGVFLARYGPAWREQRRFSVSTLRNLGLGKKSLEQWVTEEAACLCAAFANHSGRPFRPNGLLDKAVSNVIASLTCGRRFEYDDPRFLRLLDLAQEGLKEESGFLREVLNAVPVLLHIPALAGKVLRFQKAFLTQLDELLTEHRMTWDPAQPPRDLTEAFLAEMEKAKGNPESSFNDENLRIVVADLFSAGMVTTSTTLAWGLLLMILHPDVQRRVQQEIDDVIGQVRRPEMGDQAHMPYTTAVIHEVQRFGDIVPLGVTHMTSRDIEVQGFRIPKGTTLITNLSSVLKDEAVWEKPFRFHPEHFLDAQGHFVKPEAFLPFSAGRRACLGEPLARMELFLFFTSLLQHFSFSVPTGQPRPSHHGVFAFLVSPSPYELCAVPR
T2 sequence (P05177 whole entry): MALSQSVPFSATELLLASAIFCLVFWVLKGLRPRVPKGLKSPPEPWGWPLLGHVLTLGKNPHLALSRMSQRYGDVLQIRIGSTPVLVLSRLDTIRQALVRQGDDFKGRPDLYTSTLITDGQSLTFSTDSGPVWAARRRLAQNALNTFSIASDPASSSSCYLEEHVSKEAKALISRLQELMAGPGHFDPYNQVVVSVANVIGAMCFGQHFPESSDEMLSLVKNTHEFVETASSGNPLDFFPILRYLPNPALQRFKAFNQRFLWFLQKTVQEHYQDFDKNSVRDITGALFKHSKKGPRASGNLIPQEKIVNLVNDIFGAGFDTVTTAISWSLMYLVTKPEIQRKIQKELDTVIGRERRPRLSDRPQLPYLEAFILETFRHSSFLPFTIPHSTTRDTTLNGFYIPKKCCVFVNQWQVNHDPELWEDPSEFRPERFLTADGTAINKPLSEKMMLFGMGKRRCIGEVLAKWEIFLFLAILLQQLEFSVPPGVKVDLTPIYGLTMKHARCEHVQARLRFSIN
T1 sequence (Q9UNQ0 whole entry): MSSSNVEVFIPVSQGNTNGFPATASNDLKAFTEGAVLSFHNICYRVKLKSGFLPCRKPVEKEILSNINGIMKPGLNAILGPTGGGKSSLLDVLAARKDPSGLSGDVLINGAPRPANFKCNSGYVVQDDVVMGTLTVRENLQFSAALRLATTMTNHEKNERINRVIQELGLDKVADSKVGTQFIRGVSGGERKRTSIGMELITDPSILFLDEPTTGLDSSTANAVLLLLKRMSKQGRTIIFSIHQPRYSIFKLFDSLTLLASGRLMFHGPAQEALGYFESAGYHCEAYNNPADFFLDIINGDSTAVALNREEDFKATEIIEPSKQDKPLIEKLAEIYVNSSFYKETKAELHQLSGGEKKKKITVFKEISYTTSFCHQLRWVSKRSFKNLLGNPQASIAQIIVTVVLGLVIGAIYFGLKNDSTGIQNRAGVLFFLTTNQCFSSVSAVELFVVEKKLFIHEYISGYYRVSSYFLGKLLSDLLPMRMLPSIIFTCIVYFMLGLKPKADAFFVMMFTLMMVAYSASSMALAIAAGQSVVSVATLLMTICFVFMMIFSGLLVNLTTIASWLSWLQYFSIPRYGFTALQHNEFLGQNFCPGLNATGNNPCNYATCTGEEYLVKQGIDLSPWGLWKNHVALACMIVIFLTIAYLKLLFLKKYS
T3 sequence (P33261 whole entry): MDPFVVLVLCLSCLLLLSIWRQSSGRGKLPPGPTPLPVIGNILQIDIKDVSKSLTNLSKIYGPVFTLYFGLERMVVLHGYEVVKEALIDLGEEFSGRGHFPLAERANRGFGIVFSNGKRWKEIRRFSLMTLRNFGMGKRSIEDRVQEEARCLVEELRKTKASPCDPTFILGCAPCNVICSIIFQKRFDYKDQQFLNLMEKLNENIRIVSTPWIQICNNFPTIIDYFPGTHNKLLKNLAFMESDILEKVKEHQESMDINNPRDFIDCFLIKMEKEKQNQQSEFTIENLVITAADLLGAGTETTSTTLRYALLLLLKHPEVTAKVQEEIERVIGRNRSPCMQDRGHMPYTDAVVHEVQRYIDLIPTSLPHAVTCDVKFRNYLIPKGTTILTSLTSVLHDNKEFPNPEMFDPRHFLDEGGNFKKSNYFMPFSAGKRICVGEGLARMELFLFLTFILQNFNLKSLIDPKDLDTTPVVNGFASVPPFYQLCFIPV
T5 sequence (P08684 whole entry): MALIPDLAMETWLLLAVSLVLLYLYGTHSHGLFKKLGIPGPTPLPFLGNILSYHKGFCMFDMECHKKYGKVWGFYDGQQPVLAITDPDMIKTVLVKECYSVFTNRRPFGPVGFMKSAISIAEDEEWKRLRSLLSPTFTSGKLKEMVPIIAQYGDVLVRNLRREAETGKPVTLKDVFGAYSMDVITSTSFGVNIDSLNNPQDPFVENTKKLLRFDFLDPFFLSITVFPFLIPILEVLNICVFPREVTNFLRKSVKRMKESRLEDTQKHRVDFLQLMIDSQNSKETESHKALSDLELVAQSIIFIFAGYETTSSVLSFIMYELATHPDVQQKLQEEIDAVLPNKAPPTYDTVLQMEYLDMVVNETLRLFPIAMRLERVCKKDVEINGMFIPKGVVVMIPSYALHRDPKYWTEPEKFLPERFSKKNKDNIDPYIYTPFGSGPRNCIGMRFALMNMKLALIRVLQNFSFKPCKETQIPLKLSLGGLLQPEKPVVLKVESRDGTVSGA

The term IC50 denotes the concentration needed to halve the response being measured. Take `CC1(C)CCC(CN2CCN(c3ccc(C(=O)NS(=O)(=O)c4ccc(NCC5CCOCC5)c([N+](=O)[O-])c4)c(Oc4cnc5[nH]ccc5c4)c3)CC2)=C(c2ccc(Cl)cc2)C1` [Venetoclax]: the IC50 with P-gp was 30 ± 3.7 µM; against BCRP it was 19.6 ± 7.3 µM; on CYP2C19, 14.2 ± 1 µM; on CYP3A4, 7.2 ± 3.2 µM. Besides, at CYP1A2, the “IC50 CYP1A2 inhibition” value is on record as “no inhibition”. The “IC50 CYP2D6 inhibition” value on CYP2D6 is listed as “no inhibition”. Further, in the data set on CYP1A1, the “mRNA expression of CYP1A1” value was “induced”. The “mRNA expression of UGT1A3” value with UGT1A3 was “induced”. Besides, the “concentration reached in the intestine” value in data set [1] is listed as “about 1 mM”. Further, the Therapeutic plasma concentrations result in data set [2] is “about 5 µM”.
